# Reference: patent publication US20260176302A1, “SARS-CoV-2 Binding Polypeptide” (Leyden Laboratories B.V., priority 2022, published 2026)
# Test system: SARS-CoV-2 B.1.351 variant
# Type: in vivo, Mouse (Mus musculus)
sequence,measurement,setting,value
IINPRGDGTRYAQKFQG [SEQ ID NO: 082],survival time vs control group (log-rank test),"[…], control median survival 7 days",significant improvement in survival time
same,clinical signs (score 0-4),"mouse, in vivo",No clinical signs
same,survival proportion at day 21,"mouse, in vivo",100%
same,change in bodyweight (AUC) / weight loss vs control group,"mouse, in vivo, listed as test polypeptide",significant reduction in weight loss
